Experimental data as given in patent US20210085640A1, “ACYLATED CATECHIN POLYPHENOLS AND METHODS OF THEIR USE FOR THE TREATMENT OF CANCER” (Flagship Pioneering Innovations V, Inc., priority 2018, published 2021).

Assays:
Assay type in all cases: cell-based
T24 bladder cancer cells = experiment: Cancer cell survival (CellTiter-Glo), T24; conditions: 72 h
Method: (§1) The cells were prepared as follows. Cells were harvested during logarithmic growth, counted, and adjusted to 4.44×10^4 cells/mL with culture media. 90 μL of suspended cells were added to wells of 96-well plates for a final cell count of 4×10^3 cells/well. The plates were incubated overnight at 37 C with 5% CO2 overnight.
(§2) The test compounds were assayed as follows. Compound solutions were mixed at 10× final concentrations in cell media: 1 μM-10 mM (fatty acids) or 100 nM-1 mM (all other compounds). […] of solution was added to each well of cells in triplicate for each concentration. Well plates were incubated for 72 h at 37 C with 5% CO2 and then assayed with CellTiter-Glo by adding 50 μL of CTG solution to each well. Cells were lysed by shaking on an orbital shaker for 5 min. Plates were incubated at room temperature for 20 min and then each well's luminescence was measured. The surviving percentage of cells was determined as:
(§3) Survival %=(LumTest article−LumMedium control)/(LumNone treated−LumMedium control)[…]
Efficacy was assessed at nine concentration levels for each compound and the 50% inhibition concentration (IC50) determined for each compound.

[1] = tested on: Daudi lymphoma cancer cells; experiment: Cancer cell survival (CellTiter-Glo), Daudi; conditions: 72 h
Method: as §1, §2, §3
Activity was assessed at nine concentration levels for each compound and the 50% inhibition concentration (IC50) determined for each compound.

MCF7 breast cancer cells = experiment: Cancer cell survival (CellTiter-Glo), MCF7; conditions: 72 h
Method: as §1, §2, §3
(§4) Cytotoxicity was assessed at nine concentration levels for each compound and the 50% inhibition concentration (IC50) determined for each compound.

[2] = tested on: HCT 116 colorectal cancer cells; experiment: Cancer cell survival (CellTiter-Glo), HCT 116; conditions: HCT 116 cells, 72 h
Method: as §1, §2, §3, §4

A549 lung cancer cells = experiment: Cancer cell survival (CellTiter-Glo), A549; conditions: 72 h
Method: as §1, §2, §3, §4

[3] = tested on: PC-3 prostate cancer cells; experiment: Cancer cell survival (CellTiter-Glo), PC-3; conditions: PC-3 cells, 72 h
Method: as §1, §2, §3, §4

A-431 skin cancer cells = experiment: Cancer cell survival (CellTiter-Glo), A-431; set-up: Cell survival at given concentration: unit not given here; conditions: A-431 cells, 72 h
Method: as §1, §2, §3, §4

AGS stomach cancer cells = experiment: Cancer cell survival (CellTiter-Glo), AGS; set-up: Cell survival at given concentration: unit not given here
Method: as §1, §2, §3, §4

Structure (SMILES): Cc1c(C)c2c(c(C)c1O)CC[C@@](C)(CCC[C@H](C)CCC[C@H](C)CCCC(C)C)O2 [alpha-tocopherol]
- Cell survival at given concentration (T24 bladder cancer cells; 101 nM): 1.02
- Cell survival at given concentration (T24 bladder cancer cells; 318 nM): 1.01
- Cell survival at given concentration (T24 bladder cancer cells; 1 μM): 0.96
- Cell survival at given concentration (T24 bladder cancer cells; 3 μM): 1.00
- Cell survival at given concentration (T24 bladder cancer cells; 10 μM): 0.99
- Cell survival at given concentration (T24 bladder cancer cells; 32 μM): 1.06
- Cell survival at given concentration (T24 bladder cancer cells; 100 μM): 0.98
- Cell survival at given concentration (T24 bladder cancer cells; 316 μM): 1.07
- Cell survival at given concentration (T24 bladder cancer cells; 1000 μM): 1.02
- Cell survival at given concentration ([1]; 101 nM): 0.98
- Cell survival at given concentration ([1]; 318 nM): 0.99
- Cell survival at given concentration ([1]; 1 μM): 1.01
- Cell survival at given concentration ([1]; 3 μM): 1.00
- Cell survival at given concentration ([1]; 10 μM): 1.02
- Cell survival at given concentration ([1]; 32 μM): 1.04
- Cell survival at given concentration ([1]; 100 μM): 1.04
- Cell survival at given concentration ([1]; 316 μM): 1.03
- Cell survival at given concentration ([1]; 1000 μM): 1.02
- Cell survival at given concentration (MCF7 breast cancer cells; 101 nM): 1.02
- Cell survival at given concentration (MCF7 breast cancer cells; 318 nM): 1.02
- Cell survival at given concentration (MCF7 breast cancer cells; 1 μM): 1.04
- Cell survival at given concentration (MCF7 breast cancer cells; 3 μM): 1.05
- Cell survival at given concentration (MCF7 breast cancer cells; 10 μM): 1.05
- Cell survival at given concentration (MCF7 breast cancer cells; 32 μM): 1.04
- Cell survival at given concentration (MCF7 breast cancer cells; 100 μM): 1.03
- Cell survival at given concentration (MCF7 breast cancer cells; 316 μM): 1.02
- Cell survival at given concentration (MCF7 breast cancer cells; 1000 μM): 1.01
- Cell survival at given concentration ([2]; 101 nM): 0.99
- Cell survival at given concentration ([2]; 318 nM): 0.98
- Cell survival at given concentration ([2]; 1 μM): 1.00
- Cell survival at given concentration ([2]; 3 μM): 1.01
- Cell survival at given concentration ([2]; 10 μM): 1.01
- Cell survival at given concentration ([2]; 32 μM): 1.03
- Cell survival at given concentration ([2]; 100 μM): 1.03
- Cell survival at given concentration ([2]; 316 μM): 0.98
- Cell survival at given concentration ([2]; 1000 μM): 0.97
- Cell survival at given concentration (A549 lung cancer cells; 101 nM): 1.03
- Cell survival at given concentration (A549 lung cancer cells; 318 nM): 1.05
- Cell survival at given concentration (A549 lung cancer cells; 1 μM): 1.06
- Cell survival at given concentration (A549 lung cancer cells; 3 μM): 1.04
- Cell survival at given concentration (A549 lung cancer cells; 10 μM): 1.08
- Cell survival at given concentration (A549 lung cancer cells; 32 μM): 1.09
- Cell survival at given concentration (A549 lung cancer cells; 100 μM): 1.08
- Cell survival at given concentration (A549 lung cancer cells; 316 μM): 1.07
- Cell survival at given concentration (A549 lung cancer cells; 1000 μM): 1.02
- Cell survival at given concentration ([3]; 101 nM): 1.01
- Cell survival at given concentration ([3]; 318 nM): 0.99
- Cell survival at given concentration ([3]; 1 μM): 1.04
- Cell survival at given concentration ([3]; 3 μM): 1.00
- Cell survival at given concentration ([3]; 10 μM): 1.03
- Cell survival at given concentration ([3]; 32 μM): 1.00
- Cell survival at given concentration ([3]; 100 μM): 0.99
- Cell survival at given concentration ([3]; 316 μM): 1.02
- Cell survival at given concentration ([3]; 1000 μM): 1.01
- Cell survival at given concentration (A-431 skin cancer cells; 101 nM): 1.00
- Cell survival at given concentration (A-431 skin cancer cells; 318 nM): 0.99
- Cell survival at given concentration (A-431 skin cancer cells; 1 μM): 1.01
- Cell survival at given concentration (A-431 skin cancer cells; 3 μM): 1.01
- Cell survival at given concentration (A-431 skin cancer cells; 10 μM): 1.03
- Cell survival at given concentration (A-431 skin cancer cells; 32 μM): 1.01
- Cell survival at given concentration (A-431 skin cancer cells; 100 μM): 1.02
- Cell survival at given concentration (A-431 skin cancer cells; 316 μM): 1.01
- Cell survival at given concentration (A-431 skin cancer cells; 1000 μM): 1.04
- Cell survival at given concentration (AGS stomach cancer cells; 101 nM): 1.03
- Cell survival at given concentration (AGS stomach cancer cells; 318 nM): 1.03
- Cell survival at given concentration (AGS stomach cancer cells; 1 μM, Table 10.1): 1.07
- Cell survival at given concentration (AGS stomach cancer cells; 3 μM, Table 10.1): 1.04
- Cell survival at given concentration (AGS stomach cancer cells; 10 μM, Table 10.1): 1.07
- Cell survival at given concentration (AGS stomach cancer cells; 32 μM, Table 10.1): 1.06
- Cell survival at given concentration (AGS stomach cancer cells; 100 μM, Table 10.1): 1.09
- Cell survival at given concentration (AGS stomach cancer cells; 316 μM): 1.06
- Cell survival at given concentration (AGS stomach cancer cells; 1000 μM): 1.06
